# Paper PMC11078990, “Identification and characterization of small molecule inhibitors of the LINE-1 retrotransposon endonuclease” (Nature Communications, 2024)
# Where “and” joins values, the source holds several entries; their conditions need not be identical. Equal values may be shown once. Read-outs that look alike come from different tables or passages of the source.
# Legend:
# [1] = tested on: senescent LF1 human diploid fibroblasts (IFN-I and Aging gene sets); assay: RNA-seq / Gene Set Enrichment Analysis of senescent cultures; format: cell-based; conditions: senescent cultures treated 1 month beginning at 3 months senescence
# [2] = tested on: senescent LF1 human diploid fibroblasts (IL6, IL1β, CCL2, IFNα, MMP3); assay: RT-qPCR of inflammatory markers in replicatively senescent fibroblasts; format: cell-based
# L1 retrotransposition = assay: HeLa dual-luciferase L1 retrotransposition assay; format: cell-based, human
# [3] = tested on: L1-induced DNA damage in HeLa Tet-On cells (full-length L1); assay: γ-H2AX immunofluorescence assay, full-length L1 constructs; format: cell-based, human
# [4] = tested on: substrate oligonucleotide used in the EN activity assay; format: binding; set-up: key to Binding Detected? (Y/N): Binding Detected? (Y/N); Binding Detected? (Y/N)
# [5] = molecular target: L1 EN (LINE-1 retrotransposon endonuclease domain) (Homo sapiens, UniProt O00370, N5T); assay: Fluorescent oligonucleotide EN nicking activity assay; format: biochemical
# APE1 = molecular target: T1, APE1 (Homo sapiens, UniProt P27695); assay: APE1 fluorescent oligonucleotide activity assay (abasic site substrate); format: biochemical; conditions: for activity at 25 µM: read-out: APE1 activity (%)
# T1 construct: purchased New England Biolabs (NEB) M0282S
# [6] = tested on: DNA fragmentation (comet tail length) in HeLa Tet-On cells expressing EN domain; assay: Neutral comet assay, EN domain-only constructs; format: cell-based, human
# HeLa Tet-On cells = conditions: human
# [7] = read-out: EN activity, percent of no inhibitor control
# Chain of L1 EN (LINE-1 retrotransposon endonuclease domain) (O00370 1-239 N5T): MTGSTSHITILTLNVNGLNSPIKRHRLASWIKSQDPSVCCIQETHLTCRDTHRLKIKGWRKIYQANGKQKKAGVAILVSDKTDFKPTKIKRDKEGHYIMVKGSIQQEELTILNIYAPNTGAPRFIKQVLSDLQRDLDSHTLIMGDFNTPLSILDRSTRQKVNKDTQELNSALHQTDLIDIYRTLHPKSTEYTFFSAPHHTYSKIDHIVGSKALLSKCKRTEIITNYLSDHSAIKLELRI
smiles,measurement,setting,value
"Nc1ccn([C@@H]2CS[C@H](CO)O2)c(=O)n1 [3TC, Lamivudine, reference compound]","Expression of IFN-I gene set and aging gene set (RNA-seq, GSEA)",[1],decreased expression
same,"MMP3 RT-qPCR, average (EP = 1)","[2]; 10 μM, senescent cells, SEN control 5.499, 3 replicates",1.892
same,"IL1β RT-qPCR, average (EP = 1)","[2]; 10 μM, senescent cells, SEN control 8.256, 3 replicates",10.61
same,"CCL2 RT-qPCR, average (EP = 1)","[2]; 10 μM, senescent cells, SEN control 8.589, 3 replicates",4.199
same,"IFNα RT-qPCR, average (EP = 1)","[2]; 10 μM, senescent cells, SEN control 18.65, 3 replicates",15.66
same,"IL6 RT-qPCR, average (EP = 1)","[2]; 10 μM, senescent cells, SEN control 22.45, 3 replicates",13.65
same,"Luciferase (retrotransposition), average","L1 retrotransposition; Figure 4a Graph 1, 10 μM, 0 μM average 9.554",1.753
same,"Luciferase (retrotransposition), replicates","L1 retrotransposition; Figure 4a Graph 1, 10 μM, Replicates 1-4, 0 μM average 9.554",1.525 and 1.282 and 1.336 and 2.868
same,"Luciferase (retrotransposition), average","L1 retrotransposition; Figure 4a Graph 2, 10 μM, 0 μM average 9.679",1.648
same,"Luciferase (retrotransposition), replicates","L1 retrotransposition; Figure 4a Graph 2, 10 μM, Replicates 1-4, 0 μM average 9.679",2.547 and 1.556 and 1.337 and 1.153
same,"Luciferase (retrotransposition), average","L1 retrotransposition; Figure 4a Graph 3, 10μM, 0μM average 17.91",3.723
same,"Luciferase (retrotransposition), replicates","L1 retrotransposition; Figure 4a Graph 3, 10μM, Replicates 1-4, 0μM average 17.91",3.272 and 3.5538 and 3.891 and 4.176
same,"Luciferase (retrotransposition), average","L1 retrotransposition; Figure 4a Graph 4, 10μM, 0μM average 3.426",0.6208
same,"Luciferase (retrotransposition), replicates","L1 retrotransposition; Figure 4a Graph 4, 10μM, Replicates 1-4, 0μM average 3.426",0.3413 and 0.6639 and 1.079 and 0.3984
same,"Luciferase (retrotransposition), average","L1 retrotransposition; Figure 4a Graph 5, 10μM, 0μM average 4.537",0.4847
same,"Luciferase (retrotransposition), replicates","L1 retrotransposition; Figure 4a Graph 5, 10μM, Replicates 1-4, 0μM average 4.537",0.5984 and 0.4472 and 0.3986 and 0.4945
C/C(C[C@H](c1ccccc1)c1c(O)c2ccccc2oc1=O)=N\Nc1ccc([N+](=O)[O-])cc1[N+](=O)[O-] [AD3],"Inhibition of DNA damage, full-length L1 experiments",[3],best inhibition
same,Binding Detected? (Y/N),[4],N
same,"EN activity, percent of no inhibitor control",[5]; 1 µM,108.117% and 78.9256% and 93.3444%
same,"EN activity, percent of no inhibitor control",[5]; 5 µM,93.5701% and 96.3453%
same,"EN activity, percent of no inhibitor control",[5]; 10 µM,99.3729%
same,"EN activity, percent of no inhibitor control",[5]; 25 µM,99.0637% and 102.756%
same,"EN activity, percent of no inhibitor control",[5]; 50 µM,87.9685% and 80.8738% and 62.1552%
same,"EN activity, percent of no inhibitor control",[5]; 100 µM,53.1232% and 37.4643% and 59.5468%
same,"EN activity, percent of no inhibitor control",[5]; 250 µM,26.1232% and 25.9631%
same,"EN activity, percent of no inhibitor control",[5]; 500 µM,1.104% and 2.0558% and 4.103%
same,"EN activity, percent of no inhibitor control",[5]; 1000 µM,0.8695% and 0.8159%
same,remaining activity at 5 µM,[5]; [7],89.6%
same,remaining activity at 10 µM,[5]; [7],99.4%
same,remaining activity at 25 µM,[5]; [7],95.7%
same,remaining activity at 250 µM,[5]; [7],25.7%
same,remaining activity at 1000 µM,[5]; [7],1.63%
same,"IL1β RT-qPCR, average (EP = 1)",[2],4.703
same,"IL6 RT-qPCR, average (EP = 1)",[2],6.462
same,Inhibition of inflammation in senescent cells,[2],showed efficacy
same,"MMP3 RT-qPCR, average (EP = 1)",[2],2.136
same,"Luciferase (retrotransposition), average",L1 retrotransposition,1.378
same,"Luciferase (retrotransposition), replicates",L1 retrotransposition,0.9116 and 1.591 and 1.485 and 1.524
same,"APE1 percent activity, Replicate 1",APE1,92.838%
same,"APE1 percent activity, Replicate 3",APE1,104.006%
same,"APE1 percent activity, average",APE1,103.516%
same,"Percent APE1 activity, average",APE1,95.58%
same,"Percent APE1 activity, replicates",APE1,101.896% and 94.978% and 89.8705%
same,activity at 25 µM,APE1,104 ± 10.4%
same,"Nuclei comet tail length, average (WT = 1)",[6],0.568
same,"PrestoBlue (viability), average",HeLa Tet-On cells,15.41
Nn1cnn2c(SCC(=O)Nc3nnc(SCC(=O)Nc4ccc(S(N)(=O)=O)cc4)s3)nnc12 [AD29],Binding Detected? (Y/N),[4],N
same,"EN activity, percent of no inhibitor control","[5]; [Inhibitor] 0.5 μM, technical replicates 1-3, Fig. 2b source data, 0.5 µM",96.7352% and 105.013%
same,remaining activity at 0.5 µM,"[5]; [Inhibitor] 0.5 μM, technical replicates 1-3, Fig. 2b source data, read-out: EN activity, percent of no inhibitor control",97.3%
same,"EN activity, percent of no inhibitor control","[5]; [Inhibitor] 5 μM, technical replicates 1-3, Fig. 2b source data, 5 µM",89.8647% and 119.947% and 95.1949%
same,"EN activity, percent of no inhibitor control","[5]; [Inhibitor] 10 μM, technical replicates 1-3, Fig. 2b source data, 10 µM",90.2289% and 93.2039%
same,remaining activity at 10 µM,"[5]; [Inhibitor] 10 μM, technical replicates 1-3, Fig. 2b source data, read-out: EN activity, percent of no inhibitor control",89.2%
same,"EN activity, percent of no inhibitor control","[5]; [Inhibitor] 25 μM, technical replicates 1-3, Fig. 2b source data, 25 µM",63.7726% and 70.2623%
same,remaining activity at 25 µM,"[5]; [Inhibitor] 25 μM, technical replicates 1-3, Fig. 2b source data, read-out: EN activity, percent of no inhibitor control",64.2%
same,"EN activity, percent of no inhibitor control","[5]; [Inhibitor] 50 μM, technical replicates 1-3, Fig. 2b source data, 50 µM",34.0986% and 27.5313%
same,remaining activity at 50 µM,"[5]; [Inhibitor] 50 μM, technical replicates 1-3, Fig. 2b source data, read-out: EN activity, percent of no inhibitor control",24.6%
same,"EN activity, percent of no inhibitor control","[5]; [Inhibitor] 100 μM, technical replicates 1-3, Fig. 2b source data, 100 µM",8.595% and 8.689%
same,remaining activity at 100 µM,"[5]; [Inhibitor] 100 μM, technical replicates 1-3, Fig. 2b source data, read-out: EN activity, percent of no inhibitor control",5.53%
same,"EN activity, percent of no inhibitor control","[5]; [Inhibitor] 250 μM, technical replicates 1-3, Fig. 2b source data, 250 µM",1.937% and 2.743%
same,remaining activity at 250 µM,"[5]; [Inhibitor] 250 μM, technical replicates 1-3, Fig. 2b source data, read-out: EN activity, percent of no inhibitor control",2.22%
same,"EN activity, percent of no inhibitor control","[5]; [Inhibitor] 500 μM, technical replicates 1-3, Fig. 2b source data, 500 µM",1.591% and 1.804% and 0.7296%
same,"Luciferase (retrotransposition), average","L1 retrotransposition; Figure 4a Graph 4, 50μM, 0μM average 3.426",2.638
same,"Luciferase (retrotransposition), replicates","L1 retrotransposition; Figure 4a Graph 4, 50μM, Replicates 1-4, 0μM average 3.426",2.47 and 2.591 and 2.484 and 3.007
same,"APE1 percent activity, Replicate 1","APE1; compound at 25 μM, Replicate 1",83.829%
same,"APE1 percent activity, Replicate 2","APE1; compound at 25 μM, Replicate 2",79.0708%
same,"APE1 percent activity, Replicate 3","APE1; compound at 25 μM, Replicate 3",80.6497%
same,"APE1 percent activity, average","APE1; compound at 25 μM, average of 3 replicates",81.1831%
same,activity at 25 µM,"APE1; inhibitors at 25 μM, relative to 0 μM inhibitor control, mean ± s.d., 3 independent experiments",81.2 ± 2.4%
same,"Nuclei comet tail length, average (WT = 1)","[6]; 50 μM inhibitor, EN domain-only construct, neutral comet assay, normalised to WT",0.4772
same,"PrestoBlue (viability), average","HeLa Tet-On cells; 48 h, 50 μM",15.21
O=C(NCCCCCCNC(=O)Nc1cccc([N+](=O)[O-])c1)Nc1cccc([N+](=O)[O-])c1 [AD32],Binding Detected? (Y/N),[4],N
same,"EN activity, percent of no inhibitor control",[5]; 1 µM,89.1778% and 95.2749%
same,"EN activity, percent of no inhibitor control",[5]; 5 µM,106.426% and 105.894%
same,"EN activity, percent of no inhibitor control",[5]; 20 µM,107.498% and 97.7763% and 80.1287%
same,"EN activity, percent of no inhibitor control",[5]; 50 µM,115.028% and 130.021% and 99.6138%
same,"EN activity, percent of no inhibitor control",[5]; 100 µM,108.576% and 99.1955%
same,"EN activity, percent of no inhibitor control",[5]; 250 µM,76.4578% and 67.7464%
same,"EN activity, percent of no inhibitor control",[5]; 500 µM,42.369% and 27.0684%
same,"EN activity, percent of no inhibitor control",[5]; 750 µM,20.3358% and 21.9713%
same,"EN activity, percent of no inhibitor control",[5]; 1000 µM,5.092% and 3.166% and 2.499%
same,remaining activity at 1 µM,[5]; [7],93.7%
same,remaining activity at 5 µM,[5]; [7],103%
same,remaining activity at 100 µM,[5]; [7],106%
same,remaining activity at 250 µM,[5]; [7],71.9%
same,remaining activity at 500 µM,[5]; [7],46.5%
same,remaining activity at 750 µM,[5]; [7],20.5%
same,Effect on L1 retrotransposition,L1 retrotransposition,some activity in the retrotransposition assay
same,"Luciferase (retrotransposition), average",L1 retrotransposition,1.01
same,"Luciferase (retrotransposition), replicates",L1 retrotransposition,1.2931 and 0.8621 and 0.8883 and 0.9964
same,"APE1 percent activity, Replicate 1",APE1,105.807%
same,"APE1 percent activity, Replicate 2",APE1,106.706%
same,"APE1 percent activity, Replicate 3",APE1,111.118%
same,"APE1 percent activity, average",APE1,107.877%
same,"Percent APE1 activity, average",APE1,120.4%
same,"Percent APE1 activity, replicates",APE1,115.512% and 123.038% and 122.705%
same,activity at 25 µM,APE1,108 ± 2.8%
same,"Nuclei comet tail length, average (WT = 1)",[6],0.6103
same,"PrestoBlue (viability), average",HeLa Tet-On cells,14.98
